Converted amounts (≈) assume the structure as drawn. Marks after values point to notes of the source that are not given here.
What was measured:
[1] = tested on: APEC O78; experiment: Loss of 260/280 nm absorbing materials assay; type: cell-based, avian pathogenic Escherichia coli (APEC); conditions: 2X MBC, 1 h, *P<0.05 vs DMSO; for Absorbance 260: 260 nm absorbing material in supernatant; for Absorbance 280: 280 nm absorbing material in supernatant
[2] = tested on: intracellular APEC O2 in Caco-2 cells; experiment: Intracellular survival assay (cidal SMs); conditions: O2, Caco-2, 6 h treatment; superscript = multiple of MIC
[3] = tested on: intracellular APEC O78 in THP-1 cells; experiment: Intracellular survival assay (cidal SMs); conditions: O78, THP-1, 6 h treatment; superscript = multiple of MIC
[4] = tested on: biofilm embedded APEC O78; experiment: MBEC High-throughput assay; type: cell-based, avian pathogenic Escherichia coli (APEC); conditions: biofilm embedded APEC O78; superscript = multiple of MIC (footnote)
Method: Effect against biofilm embedded APEC. The effect of cidal SMs against biofilm embedded APEC was determined using MBEC High-throughput (HTP) assay (Innovotech Inc., AB, Canada). Briefly, 150 µL of 0.05 OD600 adjusted APEC O78 culture was aliquoted into each well of the MBEC device containing polystyrene pegs and incubated at 37° C. for 36 h in LB media under stationary condition. […] The plate was incubated in the dark for 18 h at 37° C. with rotation at 110 rpm. The DMSO (1%) and M63 media were used as positive and negative controls, respectively. Following incubation, MIC of SMs in challenged plate was recorded. The SMs exposed pegs were then transferred to a new 96-well plate containing PBS and sonicated for 30 mins (Aquasonic ultrasonic cleaner, VWR) to disrupt the biofilm. […] Biofilm embedded APEC bacteria were enumerated and minimum biofilm eradication concentration (MBEC) of […] were determined. Two independent experiments were conducted.

[5] = tested on: APEC O18; type: cell-based, avian pathogenic Escherichia coli (APEC); conditions: APEC O18, M63 media; MIC/MBC
[6] = tested on: intracellular APEC O2 in HD11 cells; experiment: Intracellular survival assay (cidal SMs); conditions: O2, HD11, 6 h treatment; superscript = multiple of MIC
[7] = tested on: Rif^r APEC O78; experiment: In vivo efficacy of growth inhibitors in APEC infected broiler chickens
[8] = tested on: intracellular APEC O2 in THP-1 cells; experiment: Intracellular survival assay (cidal SMs); conditions: O2, THP-1, 6 h treatment; superscript = multiple of MIC
[9] = tested on: intracellular APEC O1 in HD11 cells; experiment: Intracellular survival assay (cidal SMs); conditions: O1, HD11, 6 h treatment; superscript = multiple of MIC
[10] = tested on: APEC O2-211; type: cell-based, avian pathogenic Escherichia coli (APEC); conditions: APEC O2-211, M63 media; MIC/MBC
[11] = tested on: intracellular APEC O1 in THP-1 cells; experiment: Intracellular survival assay (cidal SMs); conditions: O1, THP-1, 6 h treatment; superscript = multiple of MIC
[12] = tested on: APEC O109; type: cell-based, avian pathogenic Escherichia coli (APEC); conditions: APEC O109, M63 media; MIC/MBC
[13] = tested on: intracellular APEC O1 in Caco-2 cells; experiment: Intracellular survival assay (cidal SMs); conditions: O1, Caco-2, 6 h treatment; superscript = multiple of MIC
[14] = tested on: APEC O15; type: cell-based, avian pathogenic Escherichia coli (APEC); conditions: APEC O15, M63 media; MIC/MBC
[15] = tested on: intracellular APEC O78 in HD11 cells; experiment: Intracellular survival assay (cidal SMs); conditions: O78, HD11, 6 h treatment; superscript = multiple of MIC
[16] = tested on: APEC O1; type: cell-based, avian pathogenic Escherichia coli (APEC); conditions: APEC O1, M63 media; MIC/MBC
[17] = tested on: APEC O78; experiment: Confocal microscopy bacterial cytological profiling; type: cell-based, avian pathogenic Escherichia coli (APEC); conditions: 2X MBC
Method: Confocal and scanning electron microscopy. Confocal microscopy was used for bacterial cytological profiling (BCP) to identify the cellular pathways targeted by SMs as described previously. […] After incubation, treated cultures were centrifuged, washed, and resuspended in 100 μL PBS. […] Cultures were then centrifuged, washed, and resuspended in PBS to 1⁄10th volume of the original cultures.

[18] = tested on: APEC O1-63; type: cell-based, avian pathogenic Escherichia coli (APEC); conditions: APEC O1-63, M63 media; MIC/MBC
[19] = tested on: APEC O35; type: cell-based, avian pathogenic Escherichia coli (APEC); conditions: APEC O35, M63 media; MIC/MBC
[20] = tested on: APEC O115; type: cell-based, avian pathogenic Escherichia coli (APEC); conditions: APEC O115, M63 media; MIC/MBC
[21] = tested on: intracellular APEC O78 in Caco-2 cells; experiment: Intracellular survival assay (cidal SMs); conditions: O78, Caco-2, 6 h treatment; superscript = multiple of MIC
[22] = tested on: APEC O2; type: cell-based, avian pathogenic Escherichia coli (APEC); conditions: APEC O2, M63 media; MIC/MBC
[23] = tested on: APEC O8; type: cell-based, avian pathogenic Escherichia coli (APEC); conditions: APEC O8, M63 media; MIC/MBC
[24] = tested on: APEC O78; type: cell-based, avian pathogenic Escherichia coli (APEC)
[25] = tested on: APEC O78-53; type: cell-based, avian pathogenic Escherichia coli (APEC); conditions: APEC O78-53, M63 media; MIC/MBC

O=C(O)CN(CCN(CC(=O)O)CC(=O)O)CC(=O)O [EDTA, reference compound]
Absorbance 260 [1]: 4.00*
Absorbance 280 [1]: 2.60

COc1cc(CNCCc2ccc(C)cc2)ccc1OCC(O)CN1CCCC1 (centres unmarked) [SM3]
SMs intracellular APEC clearance concentration [2]: >200 µM
SMs intracellular APEC clearance concentration [3]: 100^a µM
MBEC [4]: 50^b µM
MBC [5]: 100 µM (≈ 39.9 µg/mL)
MIC [5]: 100 µM (≈ 39.9 µg/mL)
SMs intracellular APEC clearance concentration [6]: 200^b µM
reduction of average APEC load in internal organs ([7]; average of liver, heart, lung and kidney, vs untreated control): either exacerbated or did not reduce
reduction of APEC lesions severity (%), Air-sacs (airsacculitis) ([7]; untreated control = 100%): -29.4%
reduction of APEC lesions severity (%), Heart (pericarditis) ([7]; untreated control = 100%): 4%
reduction of APEC lesions severity (%), Liver (perihepatitis) ([7]; untreated control = 100%): -20%
reduction of APEC lesions severity (%), Lung (lung congestion) ([7]; untreated control = 100%): 0%
reduction of APEC load, Heart ([7]; vs untreated control): -2.1 log CFU/g of tissues
reduction of APEC load, Kidney ([7]; vs untreated control): -1.4 log CFU/g of tissues
reduction of APEC load, Liver ([7]; vs untreated control): -1.8 log CFU/g of tissues
reduction of APEC load, Lung ([7]; vs untreated control): -2.0 log CFU/g of tissues
Body weight gain (BWG) ([7]; weight of live chickens before necropsy minus weight before treatment): 254.58±95.03
SMs intracellular APEC clearance concentration [8]: 100^a µM
SMs intracellular APEC clearance concentration [9]: 200^b µM
MBC [10]: 100 µM (≈ 39.9 µg/mL)
MIC [10]: 100 µM (≈ 39.9 µg/mL)
SMs intracellular APEC clearance concentration [11]: 200^b µM
MBC [12]: 200 µM (≈ 79.7 µg/mL)
MIC [12]: 100 µM (≈ 39.9 µg/mL)
SMs intracellular APEC clearance concentration [13]: >200 µM
MBC [14]: 100 µM (≈ 39.9 µg/mL)
MIC [14]: 100 µM (≈ 39.9 µg/mL)
Absorbance 260 [1]: 3.77
Absorbance 280 [1]: 2.84*
SMs intracellular APEC clearance concentration [15]: 100^a µM
MBC [16]: 200 µM (≈ 79.7 µg/mL)
MIC [16]: 100 µM (≈ 39.9 µg/mL)
cytological profile (confocal, FM4-64 / SYTO-9) [17]: membrane pore formers
MBC [18]: 200 µM (≈ 79.7 µg/mL)
MIC [18]: 200 µM (≈ 79.7 µg/mL)
MBC [19]: 200 µM (≈ 79.7 µg/mL)
MIC [19]: 100 µM (≈ 39.9 µg/mL)
MBC [20]: 100 µM (≈ 39.9 µg/mL)
MIC [20]: 100 µM (≈ 39.9 µg/mL)
SMs intracellular APEC clearance concentration [21]: 100^a µM
MBC [22]: 200 µM (≈ 79.7 µg/mL)
MIC [22]: 100 µM (≈ 39.9 µg/mL)
MBC [23]: 100 µM (≈ 39.9 µg/mL)
MIC [23]: 100 µM (≈ 39.9 µg/mL)
MBC relative to MIC ([24]; APEC O78): identical to MIC
MIC ([24]; APEC O78, M63 media, MIC/MBC): 100 µM (≈ 39.9 µg/mL)
MBC ([24]; APEC O78, M63 media, cell prints MIC/MBC): 100 µM (≈ 39.9 µg/mL)
MBC [25]: 200 µM (≈ 79.7 µg/mL)
MIC [25]: 100 µM (≈ 39.9 µg/mL)

— patent publication US20230355597A1, “COMPOUNDS, COMPOSITIONS, AND METHODS FOR THE TREATMENT AND PREVENTION OF AVIAN PATHOGENIC E. COLI (APEC)” (OHIO STATE INNOVATION FOUNDATION, priority 2018, published 2023)
